In the case of `CS(=O)(=O)c1ccc(-c2nn(Cc3cccnc3)c(=O)cc2-c2ccc(Cl)cc2)cc1`, the melting point is reported as 248 °C.
`C=CCc1cc2c(cc1OCC=Cc1ccccc1)CCC(=O)N2CC=Cc1ccccc1` showed a melting point of 88 to 89 °C.
`O=C1c2cccc(N3CCCC3)c2OC12CC2` gave a melting point of 102 °C.
For `O=S(=O)(Nc1ccccc1O)c1ccc2ccccc2c1`, the melting point was 136 °C.
Work on `CCOC(=O)C(=Cc1ccc(OC)c(O)c1)C(=O)OCC` yielded a melting point of 81 to 83 °C.
`CNC(=O)C(=NOC)c1ccccc1COc1ccc(Sc2ccccc2)cn1` gave a melting point of 95 to 96 °C.
`CC(=O)CCc1cc(OC(C)=O)c(C(C)(C)C)cc1OC(C)=O` gave a melting point of 66.5 to 68 °C.
Molecule `N#CN=[N+]([O-])c1ccc2c(c1)OCO2` has a melting point of 145 to 147 °C.
With `O=c1nc(-c2cccc(Cl)c2)c2cc(C(c3ccc(Cl)cc3)n3ccnc3)ccc2n1Cc1ccncc1` (stereo unspecified) the melting point was 61.4 °C.
`C=CCCC(O)=C(C#N)C(=O)Nc1ccc(C(F)(F)F)c(C)c1` showed a melting point of 133 °C.
For `CCCCc1cc(C(=O)O)c(=O)n(CCCC)c1C`, the melting point was 106 to 108 °C.
In the case of `C=CCC(O)(CC=C)c1nc(-c2ccncc2)c(-c2ccc(Cl)cc2)n1CC`, the melting point is reported as 159 to 160 °C.
Molecule `CCCCC1=NC2(CCCC2)C(=O)N1Cc1ccc(-c2ccccc2S(=O)(=O)Nc2onc(C)c2C)c(OCCOC)c1` has a melting point of 55 to 58 °C.
`O=C1NCC(Cc2ccc(F)cc2)O1` (stereo unspecified) gave a melting point of 120 to 121 °C.
Molecule `NC(CSSCCCN1C(=O)NCC1c1ccccc1)C(=O)O` (stereo unspecified) has a melting point of 172 to 178 °C.
`O=C(O)CCCCC(=O)NCCc1ccccc1` gave a melting point of 110 to 111 °C.
`COC(=O)Nc1cc2c(cn1)[nH]c1ccccc12` gave a melting point of 180 to 182 °C.
With `CCCNC1=NS(=O)(=O)c2cc(C(F)(F)F)ccc2N1` the melting point was 241 to 243 °C.
Work on `Cc1oc(-c2ccccc2)nc1COc1ccc(CCCCc2nnn[nH]2)cc1` yielded a melting point of 116 to 117 °C.
For `Cc1cccc2c1C=C(C(=O)O)C2C` (stereo unspecified), the melting point was 190 to 193 °C.
In the case of `CCn1cc(-c2cnccn2)ccc1=O`, the melting point is reported as 120 to 121 °C.
Molecule `O=C(O)c1ccc(NC(=O)c2ccc(Br)nc2)nc1` has a melting point of 270 to 272 °C.
With `CC(C)n1nc(-c2sc(NC(=O)c3ccccc3)nc2-c2ccccc2)ccc1=O` the melting point was 126 to 129 °C.
Work on `Cc1c(CCNC(=S)Nc2nccs2)cccc1C(F)(F)F` yielded a melting point of 158 to 159 °C.
Work on `COC(=O)C(C)(C)c1cn2nc(Cl)c(C)cc2n1` yielded a melting point of 98 to 99 °C.
For `COC(=O)Cn1c(C(=O)Nc2nc(-c3cc(OC)ccc3OC)c(CC3CCCCC3)s2)cc2cc(C)cc(C)c21`, the melting point was 89 to 92 °C.
In the case of `Cc1cc(=O)on1C(=O)c1ccc(Cl)cc1Cl`, the melting point is reported as 137 to 139 °C.
Molecule `COc1cc(/C=C/C(=O)CC(=O)C2(C)CC2)ccc1O` has a melting point of 78 to 80 °C.
`CCOC(Oc1cc(Cl)cc(Cl)c1)C(=O)NC(C)(C)C` (stereo unspecified) showed a melting point of 69 to 71 °C.
Molecule `O=C(CO)c1ccc(-c2ccccc2)cc1` has a melting point of 130 to 132 °C.
With `CN(C)C(=O)c1c(CNS(=O)(=O)c2cccc(Cl)c2)nn(-c2ccc(Cl)cc2Cl)c1-c1ccc(Cl)cc1` the melting point was 178 °C.
`COc1nc2c(cc1C#N)CCCCC2` showed a melting point of 83.5 to 84 °C.
With `CC(CCCl)C(=O)Nc1nnc(C(C)(C)C)s1` (stereo unspecified) the melting point was 124 to 126 °C.
With `Cc1cccc(C(=O)Cc2ccnc(-c3ccc(OC(F)(F)F)cc3)c2)n1` the melting point was 76 to 78 °C.
`CC(=O)Nc1cc(N)c(Cl)cc1F` showed a melting point of 142 to 143 °C.
`O=c1oc2c(c(O)c1C(c1ccccc1)C1CC1)CCCCCC2CC1CCCOC1` (stereo unspecified) gave a melting point of 89 to 95 °C.
`CC(C(N)=O)c1ccc2c(c1)oc1ccc(Cl)cc12` (stereo unspecified) showed a melting point of 210 to 211 °C.
Molecule `COCS(=O)(=O)c1ccc(C=C(C)c2ccc3c(c2)C(C)(C)CCC3(C)C)cc1` has a melting point of 154 to 156 °C.
`O=C(/C=C/C(=O)c1ccc(Cl)cc1)c1ccc(Cl)cc1` showed a melting point of 174 to 176 °C.
Work on `O=C1C(=O)c2ccccc2C2=C1SCC1(CCCN(CC(O)Cc3ccccc3)C1)O2` (stereo unspecified) yielded a melting point of 59 to 60 °C.
Molecule `O=C(O)C1Cc2c(c(Cl)cc3c(=O)c4ccccc4oc23)O1` (stereo unspecified) has a melting point of 292 to 295 °C.
Molecule `CCCOC(=Nc1sccc1C#N)OCCC` has a melting point of 65 to 67 °C.
For `Cc1cccc(-c2nc3c(C)cccc3[nH]2)c1[N+](=O)[O-]`, the melting point was 186 to 188 °C.
For `CC(C)(C)OC(=O)N1CCc2cc(OCc3ccccc3)c(OCc3ccccc3)cc2C1Cc1ccc(NC(=O)c2ccccc2)c(I)c1` (stereo unspecified), the melting point was 151 to 153 °C.
Molecule `c1ccc(CN2CCN(Cc3ccccc3)[C@@H](CCc3ccccn3)C2)cc1` has a melting point of 83 to 86 °C.
Molecule `CCC1(CCCN2CCN(c3ccccn3)CC2)C(=O)Nc2ccccc21` (stereo unspecified) has a melting point of 122 to 124 °C.
In the case of `COc1ccc2cccc(CC(=O)O)c2c1`, the melting point is reported as 154 to 156 °C.
Molecule `CC(C)(C)OC(=O)CC[C@H](NC(=O)c1ccc(N)cc1F)C(=O)OC(C)(C)C` has a melting point of 91 to 95 °C.
With `O=C(NCCO)c1ccc(CCCc2ccccc2CCc2ccccc2)cc1` the melting point was 104 to 106 °C.
Work on `O=C(O)CCCNc1nc2ccccc2c(=O)o1` yielded a melting point of 147 to 148 °C.
`Cc1oc(-c2ccco2)nc1COc1ccc(COc2nn(-c3ccccc3)cc2C=O)cc1` gave a melting point of 148 to 149 °C.
With `Cc1cc(SCc2cc(-c3ccc(Cl)cc3)on2)ccc1OCC(=O)O` the melting point was 79 to 80 °C.
With `CC(C)(C)OC(=O)Nc1ccc(-c2cccnc2)cc1[N+](=O)[O-]` the melting point was 107 to 109 °C.
Molecule `N#Cc1c(-c2ccccc2)[nH]c(Cl)c1Cl` has a melting point of 254 to 255 °C.
In the case of `COc1ccc(C(=O)Nc2c(Cl)cncc2Cl)c2[nH]c(C(F)(F)F)nc12`, the melting point is reported as 300 to 301 °C.
For `CC(OC(=O)Nc1ccc(-c2ncn(-c3ccc(OC(F)(F)F)cc3)n2)cc1)C(F)(F)C(F)(F)F` (stereo unspecified), the melting point was 171 to 173 °C.
In the case of `Cc1cc(-c2cnn3c(C(F)(F)F)cc(-c4ccc(Cl)c(C)c4)nc23)cc(C)n1`, the melting point is reported as 254 °C.
In the case of `Nc1c(C(=O)O)sc2cc(F)ccc12`, the melting point is reported as 160 to 163 °C.
In the case of `O=P(OC1=Nc2ccc(Cl)cc2C(c2ccccc2Cl)=NC1)(N1CCOCC1)N1CCOCC1`, the melting point is reported as 185 to 187 °C.
For `CCOC(=O)c1[nH]c(=O)[nH]c(=O)c1[N+](=O)[O-]`, the melting point was 259 °C.
In the case of `O=c1ccc(C(F)(F)F)cn1Cc1ccccc1NCCN1CCOCC1`, the melting point is reported as 101 to 103 °C.
Work on `CCCCCCCCNC(=O)N1CCC(Nc2ccc(CCNC[C@H](O)COc3ccc(F)cc3)cc2)CC1` yielded a melting point of 58 to 64 °C.
In the case of `Cn1cc(-c2ncc(-c3ccc4cc(OC(Cc5ccccc5)C(=O)O)ccc4c3)o2)c2ccccc21` (stereo unspecified), the melting point is reported as 149 to 151 °C.
In the case of `CS(=O)c1ncc2n1-c1ccc(Cl)cc1C(c1ccccc1F)=NC2` (stereo unspecified), the melting point is reported as 95 to 110 °C.
In the case of `C=Cc1cc(CNC(=O)NCc2ccc(C(C)(C)C)cc2)cc(Cl)c1NS(C)(=O)=O`, the melting point is reported as 165 to 167 °C.
With `COC(=O)C(NS(=O)(=O)c1ccc(-c2ccc(NC(=O)c3oc4cccc(C)c4c3C)cc2)cc1)C(C)C` (stereo unspecified) the melting point was 199 to 200 °C.
For `COc1ccc(OC2COc3ccc(OC(C)c4ccc5ccccc5n4)cc3C2O)cc1` (stereo unspecified), the melting point was 81 to 85 °C.
`Cn1ncnc1COc1nn2c(-c3ccccc3F)nncc2c1-c1cccc(N)c1` showed a melting point of 196 to 200 °C.
In the case of `c1cncc(-c2ccsc2)c1`, the melting point is reported as 75 to 77 °C.
`Ic1n[nH]c2ccccc12` showed a melting point of 54 to 55 °C.
For `CCCCCCOCCOc1ccc(-c2ccc3c(c2)C=C(C(=O)Nc2ccc(CN(C)C4CCOCC4)cc2)CCS3(=O)=O)cc1`, the melting point was 180 to 182 °C.
In the case of `COC(=O)c1ccc(OCCCc2ccccc2)cc1O`, the melting point is reported as 101 to 102 °C.
`CN1C(=S)Cc2ccccc21` showed a melting point of 108 to 109 °C.
Work on `CC(=O)SCCC(=O)N1NC(=O)CC1C(=O)O` (stereo unspecified) yielded a melting point of 205 to 207 °C.
With `CC(C)(C)OC(=O)N1CCN(c2ccc([N+](=O)[O-])cc2C#N)CC1` the melting point was 141 to 142 °C.
With `Cc1ccc(Cn2cc(C(=O)C(=O)O)c3cc(-c4ccc(OC(F)(F)F)cc4)ccc32)cc1` the melting point was 192 to 193 °C.
For `O=C1C(Br)CCN1c1ncc(C(F)(F)F)s1` (stereo unspecified), the melting point was 105 to 106 °C.
In the case of `O=C(O)C(Oc1ccc(Cl)c(C(F)(F)F)c1)c1ccc(Cl)cc1` (stereo unspecified), the melting point is reported as 132 °C.
In the case of `COC1COc2cc(NS(C)(=O)=O)c(Oc3ccccc3)cc2C1=O` (stereo unspecified), the melting point is reported as 139 to 141 °C.
Work on `O=C(Nc1ccc(O)cc1)C(=O)N1CCC(Cc2ccc(F)cc2)CC1` yielded a melting point of 98 to 100 °C.
With `CC(C)C(OCc1ccc(Cl)cc1)c1cncnc1` (stereo unspecified) the melting point was 33 to 35 °C.
`CC1(C)C(=O)N(c2ccc(C#N)c(C(F)(F)F)c2)C(=O)N1CC1CC1CN1C(=O)N(c2ccc(C#N)c(C(F)(F)F)c2)C(=O)C1(C)C` (stereo unspecified) showed a melting point of 178 to 180 °C.
`CCCc1nc2c(C)cc(C)nc2n1C1CCc2cc(-c3ccccc3-c3nnn[nH]3)ccc21` (stereo unspecified) showed a melting point of 173 °C.
`COC(=O)C(OC)c1ccc2nc(-c3ccc(Cl)cc3)oc2c1` (stereo unspecified) showed a melting point of 131 to 132 °C.
Work on `CCOC(=O)C(NO)NC(C)=O` (stereo unspecified) yielded a melting point of 119 to 121 °C.
`COC(=O)Cc1c(C)n(Cc2ccccc2OC)c2ccc(OC)cc12` gave a melting point of 98 to 100 °C.
Molecule `COc1ccc(OCc2nc3nccnc3c(=O)[nH]2)cc1` has a melting point of 233 to 234 °C.
`CCCc1nc2ccc(N)cc2n1Cc1ccccc1Cl` showed a melting point of 121 to 122 °C.
`FC(F)(F)c1c(Cl)c(Cl)c(C=S)c(Cl)c1Cl` gave a melting point of 98.5 to 100 °C.
With `CC(=O)Nc1ccc(C2=NNC(=O)C2)cc1` the melting point was 254 to 258 °C.
With `COc1cccc(N(CCN2CCC(C(=O)c3ccc(F)cc3)CC2)C(=O)c2ccc(NC(C)=O)cc2)c1` the melting point was 146 to 152 °C.
`C1=CC2=NC=NC23CCNCC3N1` (stereo unspecified) gave a melting point of 94 to 95 °C.
Work on `Nc1ccc(S(=O)(=O)c2cc(-c3cccc(C(F)(F)F)c3)nc(N3CCCC3)c2)cc1` yielded a melting point of 219 to 220 °C.
`N#Cc1cc(Cl)ccc1Oc1cc(N2CCOCC2)c(F)cc1OCc1ccccc1` showed a melting point of 134 to 135 °C.
For `CC(C)n1cnc2c(Nc3ccncc3)nc(F)nc21`, the melting point was 105 to 106 °C.
`CN(C(C)(C)C)S(=O)(=O)c1cccnc1SCc1ccccc1` showed a melting point of 92 to 94 °C.
`CCc1nc(C)[nH]c1I` gave a melting point of 156 to 159 °C.
In the case of `CN(C)CC1CCCCN1CC(=O)N1c2ccccc2C(=O)Nc2cccnc21` (stereo unspecified), the melting point is reported as 189 to 190 °C.
Molecule `CC(C)[C@H]1CC[C@H](Nc2ncc(Cc3ccc(O)nc3)c3ncccc23)CC1` has a melting point of 232 to 235 °C.
Molecule `O=C(NC(=O)c1ccccc1Br)Nc1cc(C(F)(F)F)c(Cl)cc1Br` has a melting point of 193 °C.
In the case of `Cn1c2ccc(-c3nnn[nH]3)cc2c(=O)c2cc(-c3nnn[nH]3)ccc21`, the melting point is reported as > 400 °C.
